Counter-ions that a name gives are not always drawn.
Target: T1, DPP-IV (Homo sapiens, UniProt P27487)
T1 construct: Soluble human DPP-IV lacking the transmembrane anchor (Gly31-Pro766); Pre-Pro-alpha-mating factor secretion leader (N, cleaved yes); made in house
Assay: Continuous fluorimetric assay of inhibition of DPP-IV peptidase activity (cleavage of Gly-Pro-AMC)
Format: biochemical
Settings: substrate Gly-Pro-AMC 16 μM, pH 7.4, 25° C., 1% DMSO; assays carried out with human and porcine DPP-IV (comparable activities)
Experimental: Inhibition of DPP-IV peptidase activity was monitored with a continuous fluorimetric assay. This assay is based on the cleavage of the substrate Gly-Pro-AMC (Bachem) by DPP-IV, releasing free AMC. The assay is carried out in 96-well microtiterplates. In a total volume of 100 μl compounds are preincubated with […] DPP-IV employing a buffer containing 10 mM Hepes, 150 mM NaCl, 0.005% Tween 20 (pH 7.4). […] The final concentration of DMSO is 1%. The inhibitory potential of the compounds were determined.
Soluble human DPP-IV lacking the transmembrane anchor (Gly31-Pro766) was expressed in a recombinant YEAST-strain as Pre-Pro-alpha-mating fusion. The secreted product (rhuDPP-IV-Gly31-Pro766) was purified from fermentation broth (>90% purity).

T1 sequence (P27487 31-766): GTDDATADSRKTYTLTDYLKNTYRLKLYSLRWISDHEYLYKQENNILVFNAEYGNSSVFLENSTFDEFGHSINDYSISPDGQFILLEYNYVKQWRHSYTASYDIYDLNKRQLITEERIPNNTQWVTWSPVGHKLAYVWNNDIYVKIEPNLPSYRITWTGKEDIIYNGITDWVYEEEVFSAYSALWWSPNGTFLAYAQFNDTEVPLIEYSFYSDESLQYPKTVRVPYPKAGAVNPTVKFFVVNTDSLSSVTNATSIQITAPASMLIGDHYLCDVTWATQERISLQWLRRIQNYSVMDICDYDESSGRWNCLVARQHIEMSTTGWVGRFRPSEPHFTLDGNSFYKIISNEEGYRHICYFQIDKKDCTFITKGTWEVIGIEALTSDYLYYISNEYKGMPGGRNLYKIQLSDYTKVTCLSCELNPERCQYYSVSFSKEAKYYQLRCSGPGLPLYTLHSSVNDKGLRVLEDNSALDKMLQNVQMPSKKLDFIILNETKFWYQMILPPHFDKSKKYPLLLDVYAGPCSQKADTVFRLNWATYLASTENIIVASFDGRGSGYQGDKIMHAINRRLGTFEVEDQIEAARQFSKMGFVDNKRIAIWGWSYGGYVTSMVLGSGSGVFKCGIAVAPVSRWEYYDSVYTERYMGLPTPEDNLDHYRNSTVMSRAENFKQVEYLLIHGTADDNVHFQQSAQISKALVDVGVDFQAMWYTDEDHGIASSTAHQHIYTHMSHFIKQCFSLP

Row | Compound | IC50 [nM]
1 | N[C@@H](CC(=O)N1CCC[C@@H]1c1nc(-c2ccccc2)no1)Cc1ccccc1F [Example 28, (R)-3-Amino-4-(2-fluoro-phenyl)-1-[(R)-2-(3-phenyl-[1,2,4]oxadiazol-5-yl)-pyrrolidin-1-yl]-butan-1-one hydrochloride] | 101 to 1000
2 | N[C@@H](CC(=O)N1CCC[C@H]1c1nc(-c2cccc(F)c2)no1)Cc1cccc(Cl)c1 [Example 6, (R)-3-Amino-4-(3-chloro-phenyl)-1-{(S)-2-[3-(3-fluoro-phenyl)-[1,2,4]oxadiazol-5-yl]-pyrrolidin-1-yl}-butan-1-one trifluoroacetic acid salt] | < 100
3 | N[C@@H](CC(=O)N1CCC[C@H]1c1nc(-c2cccc(Cl)c2)no1)Cc1ccccc1F [Example 2, (R)-3-Amino-1-{(S)-2-[3-(3-chloro-phenyl)[1,2,4]oxadiazol-5-yl)-pyrrolidin-1-yl}-4-(2-fluoro-phenyl)-butan-1-one hydrochloride] | < 100
4 | N[C@@H](CC(=O)N1CCC[C@H]1c1nc(C2CCC2)no1)Cc1cc(F)c(F)cc1F [Example 15, (R)-3-Amino-1-[(S)-2-(3-cyclobutyl-[1,2,4]oxadiazol-5-yl)-pyrrolidin-1-yl]-4-(2,4,5-trifluoro-phenyl)-butan-1-one formate salt] | < 100
5 | COCC1(c2noc([C@@H]3CCCN3C(=O)C[C@H](N)Cc3cc(F)c(F)cc3F)n2)CC1 [Example 25, (R)-3-Amino-1-{(S)-2-[3-(1-methoxymethyl-cyclopropyl)-[1,2,4]oxadiazol-5-yl]-pyrrolidin-1-yl}-4-(2,4,5-trifluoro-phenyl)-butan-1-one formate salt] | < 100
6 | N[C@@H](CC(=O)N1CC(F)(F)C[C@H]1c1nc(C2CC2)no1)Cc1cc(F)c(F)cc1F [Example 27, (R)-3-Amino-1-[(S)-2-(3-cyclopropyl-[1,2,4]oxadiazol-5-yl)-4,4-difluoro-pyrrolidin-1-yl]-4-(2,4,5-trifluoro-phenyl)-butan-1-one formate salt] | < 100
7 | CS(=O)(=O)Nc1ccc(-c2noc([C@@H]3CCCN3C(=O)C[C@H](N)Cc3ccccc3F)n2)cc1 [Example 10, N-[4-(5-{(S)-1-[(R)-3-Amino-4-(2-fluoro-phenyl)-butyryl]-pyrrolidin-2-yl}-[1,2,4]oxadiazol-3-yl)-phenyl]-methanesulphonamide trifluoroacetic acid salt] | < 100
8 | N[C@@H](CC(=O)N1CCC[C@H]1c1nc(C2CC2)no1)Cc1ccccc1F [Example 11, (R)-3-Amino-1-[(S)-2-(3-cyclopropyl-[1,2,4]oxadiazol-5-yl)-pyrrolidin-1-yl]-4-(2-fluorophenyl)-butan-1-one trifluoracetic acid salt] | < 100
9 | N[C@@H](CC(=O)N1CCC[C@H]1c1nc(-c2cccc(F)c2)no1)Cc1ccccc1F [Example 3, (R)-3-Amino-1-{(S)-2-[3-(3-fluoro-phenyl) [1,2,4]oxadiazol-5-yl)-pyrrolidin-1-yl}-4-(2-fluoro-phenyl)-butan-1-one hydrochloride] | < 100
10 | N[C@@H](CC(=O)N1CCC[C@H]1c1nc(-c2ccccc2)no1)Cc1ccccc1F [Example 1, (R)-3-Amino-4-(2-fluoro-phenyl)-1-[(S)-2-(3-phenyl-[1,2,4]oxadiazol-5-yl)-pyrrolidin-1-yl]-butan-1-one hydrochloride] | < 100
11 | CS(=O)(=O)c1ccc(-c2noc([C@@H]3CCCN3C(=O)C[C@H](N)Cc3ccccc3F)n2)cc1 [Example 4, (R)-3-Amino-4-(2-fluoro-phenyl)-1-{(S)-2-[3-(4-methanesulphonyl-phenyl)[1,2,4]oxadiazol-5-yl]-pyrrolidin-1-yl}-butan-1-one hydrochloride] | < 100
12 | N[C@@H](CC(=O)N1CCC[C@H]1c1nc(-c2ccc(F)cc2F)no1)Cc1ccccc1F [Example 8, (R)-3-Amino-1-{(S)-2-[3-(2,4-difluoro-phenyl)-[1,2,4]oxadiazol-5-yl)-pyrrolidin-1-yl}-4-(2-fluoro-phenyl)-butan-1-one trifluoracetic acid salt] | < 100
13 | N[C@@H](CC(=O)N1CCC[C@H]1c1nc(-c2ccccn2)no1)Cc1ccccc1F [Example 5, (R)-3-Amino-4-(2-fluoro-phenyl)-1-[(S)-2-(3-pyridin-2-yl-[1,2,4]oxadiazol-5-yl)-pyrrolidin-1-yl]-butan-1-one] | < 100
14 | CS(=O)(=O)c1cccc(-c2noc([C@@H]3CCCN3C(=O)C[C@H](N)Cc3ccccc3F)n2)c1 [Example 9, (R)-3-Amino-1-{(S)-2-[3-(3-methanesulphonyl-phenyl)-[1,2,4]oxadiazol-5-yl)-pyrrolidin-1-yl}-4-(2-fluoro-phenyl)-butan-1-one trifluoracetic acid salt] | < 100

The remaining lines, values ahead:

Row | IC50 [nM] | Compound
15 | < 100 | N[C@@H](CC(=O)N1CC(n2nccc2C2CC2)C1)Cc1cc(F)c(F)cc1F [Example 56, (R)-3-amino-1-[3-(5-cyclopropyl-pyrazol-1-yl)-azetidin-1-yl]-4-(2,4,5-trifluoro-phenyl)-butan-1-one]
16 | < 100 | N[C@@H](CC(=O)N1CC(n2ccc(C3CC3)n2)C1)Cc1cc(F)c(F)cc1F [Example 55, (R)-3-Amino-1-[3-(3-cyclopropyl-pyrazol-1-yl)-azetidin-1-yl]-4-(2,4,5-trifluoro-phenyl)butan-1-one]
17 | 101 to 1000 | N[C@@H](CC(=O)N1CCC[C@H]1c1cn(-c2ccccc2)nn1)Cc1ccccc1F [Example 42, formate salt]
18 | 101 to 1000 | N[C@@H](CC(=O)N1CCC[C@H]1c1ncc(-c2ccccc2)[nH]1)Cc1ccccc1F [Example 41, formate salt]
19 | 101 to 1000 | N[C@@H](CC(=O)N1CCC[C@@H]1c1nc(-c2cccc(Cl)c2)no1)Cc1ccccc1F [Example 29, (R)-3-Amino-1-{(R)-2-[3-(3-chloro-phenyl) [1,2,4]oxadiazol-5-yl)-pyrrolidin-1-yl}-4-(2-fluoro-phenyl)-butan-1-one hydrochloride]
20 | 1000 to 2000 | N[C@@H](CC(=O)N1CC(N2CCC(C(F)(F)F)CC2)C1)Cc1ccccc1F [Example 50, (3R)-3-Amino-4-(2-fluoro-phenyl)-1-[3-(4-trifluoromethyl-piperidin-1-yl)-azetidin-1-yl]-butan-1-one]
21 | < 100 | CC(C)(C)c1noc([C@@H]2CCN2C(=O)C[C@H](N)Cc2cc(F)c(F)cc2F)n1 [Example 49, (R)-3-Amino-1-[(S)-2-(3-tert-butyl-[1,2,4]oxadiazol-5-yl)-azetidin-1-yl]-4-(2,4,5-trifluorophenyl)-butan-1-one formate salt]
22 | < 100 | CS(=O)(=O)c1ccc(-c2noc([C@H]3CCCN3C(=O)C[C@H](N)Cc3ccccc3F)n2)cc1 [Example 31, (R)-3-Amino-4-(2-fluoro-phenyl)-1-{(R)-2-[3-(4-methanesulphonyl-phenyl) [1,2,4]oxadiazol-5-yl]-pyrrolidin-1-yl}-butan-1-one hydrochloride]
23 | 1000 to 2000 | N[C@@H](CC(=O)N1CC(N2CCN(c3ccccn3)CC2)C1)Cc1ccccc1F [Example 51, (3R)-3-Amino-4-(2-fluoro-phenyl)-1-[3-(4-pyridin-2-yl-piperazin-1-yl)-azetidin-1-yl]-butan-1-one]
24 | 101 to 1000 | N[C@@H](CC(=O)N1CCC[C@@H]1c1nc(-c2ccccn2)no1)Cc1ccccc1F [Example 32, (R)-3-Amino-4-(2-fluoro-phenyl)-1-[(R)-2-(3-pyridin-2-yl-[1,2,4]oxadiazol-5-yl)pyrrolidin-1-yl]-butan-1-one hydrochloride]
25 | < 100 | N[C@@H](CC(=O)N1CC(n2nccc2C(F)(F)F)C1)Cc1cc(F)c(F)cc1F [Example 54, (3R)-3-amino-1-[3-(5-trifluoromethyl-pyrazol-1-yl)azetidin-1-yl]-4-(2,4,5-trifluoro-phenyl)-butan-1-one]
26 | 101 to 1000 | N[C@@H](CC(=O)N1CCC[C@@H]1c1nc(-c2cccc(F)c2)no1)Cc1ccccc1F [Example 30, (R)-3-Amino-1-{(R)-2-[3-(3-fluoro-phenyl) [1,2,4]oxadiazol-5-yl)-pyrrolidin-1-yl}-4-(2-fluoro-phenyl)-butan-1-one hydrochloride]
27 | < 100 | N[C@@H](CC(=O)N1CC(n2ccc(C(F)(F)F)n2)C1)Cc1cc(F)c(F)cc1F [Example 53, (3R)-3-Amino-1-[3-(3-trifluoromethyl-pyrazol-1-yl)-azetidin-1-yl]-4-(2,4,5-trifluorophenyl)-butan-1-one]
28 | < 100 | N[C@@H](CC(=O)N1CCC[C@H]1c1nc2cc(Cl)ccc2[nH]1)Cc1ccccc1F [Example 40, (R)-3-Amino-1-[(S)-2-(5-chloro-1H-benzoimidazol-2-yl)-pyrrolidin-1-yl]-4-(2-fluorophenyl)-butan-1-one trifluoroacetic acid salt]
29 | 101 to 1000 | N[C@@H](CC(=O)N1CC(n2cccn2)C1)Cc1ccccc1F [Example 52, (3R)-3-Amino-4-(2-fluoro-phenyl)-1-(3-pyrazol-1-yl-azetidin-1-yl)-butan-1-one]
30 | < 100 | N[C@@H](CC(=O)N1CCC[C@H]1c1noc(-c2ccc(F)cn2)n1)Cc1cc(F)c(F)cc1F [Example 36, (R)-3-Amino-1-{(S)-2-[5-(5-fluoro-pyridin-2-yl)-[1,2,4]oxadiazol-3-yl]-pyrrolidin-1-yl}-4-(2,4,5-trifluoro-phenyl)-butan-1-one formate salt]
31 | 101 to 1000 | N[C@@H](CC(=O)N1CCC[C@H]1c1nnc(-c2ccccc2)[nH]1)Cc1ccccc1F [Example 44, formate salt]
32 | 101 to 1000 | N[C@@H](CC(=O)N1CCC[C@H]1c1nnc(-c2ccccc2)o1)Cc1ccccc1F [Example 46, formate salt]

Reference: US20080015146A1, “Dpp-IV Inhibitors” (SANTHERA PHARMACEUTICALS (DEUTSCHLAND) AG, priority 2004, published 2008)
